What all share (assay type): biochemical
What all share (settings): 15 nM tritium labelled cAMP, 1 h at room temperature, SPA beads

Experiment [1] addresses PDE1C (Homo sapiens, UniProt Q14123). Nature of the experiment: PDE1 Inhibition Assay, PDE1C (SPA). On the procedure:
(§1) PDE1A, PDE1B and PDE1C assays were performed as follows: the assays was performed in 60 μL samples containing a fixed amount of the PDE1 enzym1 (sufficient to convert 20-25% of the cyclic nucleotide substrate), a buffer (50 mM HEPES pH 7.6; 10 mM MgCl2; 0.02% Tween20), 0.1 mg/ml BSA, 15 nM tritium labelled cAMP and varying amounts of inhibitors. Reactions were initiated by addition of the cyclic nucleotide substrate, and reactions were allowed to proceed for 1 h at room temperature before being terminated through mixing with 20 μL (0.2 mg) yttrium silicate SPA beads (PerkinElmer). The beads were allowed to settle for 1 h in the dark before the plates were counted in a Wallac 1450 Microbeta counter. The measured signals were converted to activity relative to an uninhibited control (100%) and IC50 values were calculated using XIFit (model 205, IDBS).

Experiment [2] has as its target PDE1A (Homo sapiens, UniProt P54750). As to the kind of experiment: PDE1 Inhibition Assay, PDE1A (SPA). As to the method:
as §1

In experiment [3] the target is PDE1B (Homo sapiens, UniProt Q01064). Nature of the experiment: PDE1 Inhibition Assay, PDE1B (SPA). As to the method:
as §1

pIC50: −log10 of the molar value.

Chain of PDE1B (Q01064 whole entry): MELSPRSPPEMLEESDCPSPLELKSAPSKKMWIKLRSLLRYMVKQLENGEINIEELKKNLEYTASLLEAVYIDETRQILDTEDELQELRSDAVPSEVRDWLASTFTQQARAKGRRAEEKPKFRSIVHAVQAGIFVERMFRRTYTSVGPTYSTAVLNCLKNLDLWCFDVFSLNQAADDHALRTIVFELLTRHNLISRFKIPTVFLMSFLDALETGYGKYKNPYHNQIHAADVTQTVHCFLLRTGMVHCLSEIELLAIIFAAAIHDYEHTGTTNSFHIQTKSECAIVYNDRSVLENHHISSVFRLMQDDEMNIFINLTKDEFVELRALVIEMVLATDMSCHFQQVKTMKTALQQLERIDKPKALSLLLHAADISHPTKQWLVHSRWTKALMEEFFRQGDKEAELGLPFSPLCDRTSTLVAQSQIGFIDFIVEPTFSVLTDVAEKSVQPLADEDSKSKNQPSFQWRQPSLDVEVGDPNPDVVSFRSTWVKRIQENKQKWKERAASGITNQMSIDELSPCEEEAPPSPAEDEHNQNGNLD
Chain of PDE1A (P54750 whole entry): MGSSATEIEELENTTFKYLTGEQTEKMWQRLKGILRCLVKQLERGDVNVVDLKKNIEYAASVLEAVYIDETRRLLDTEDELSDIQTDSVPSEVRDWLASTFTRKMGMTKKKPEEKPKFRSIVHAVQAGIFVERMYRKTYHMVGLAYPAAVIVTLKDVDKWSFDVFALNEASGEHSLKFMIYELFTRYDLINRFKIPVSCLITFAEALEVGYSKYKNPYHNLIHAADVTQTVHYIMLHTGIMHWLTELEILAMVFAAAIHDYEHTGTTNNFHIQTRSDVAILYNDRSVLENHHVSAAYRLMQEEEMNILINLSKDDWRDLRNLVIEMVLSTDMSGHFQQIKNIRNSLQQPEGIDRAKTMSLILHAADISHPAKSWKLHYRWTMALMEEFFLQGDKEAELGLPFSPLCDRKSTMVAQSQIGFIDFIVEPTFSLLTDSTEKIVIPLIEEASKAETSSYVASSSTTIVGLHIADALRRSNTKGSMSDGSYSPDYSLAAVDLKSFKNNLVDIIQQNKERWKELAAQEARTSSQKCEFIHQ
Chain of PDE1C (Q14123 whole entry): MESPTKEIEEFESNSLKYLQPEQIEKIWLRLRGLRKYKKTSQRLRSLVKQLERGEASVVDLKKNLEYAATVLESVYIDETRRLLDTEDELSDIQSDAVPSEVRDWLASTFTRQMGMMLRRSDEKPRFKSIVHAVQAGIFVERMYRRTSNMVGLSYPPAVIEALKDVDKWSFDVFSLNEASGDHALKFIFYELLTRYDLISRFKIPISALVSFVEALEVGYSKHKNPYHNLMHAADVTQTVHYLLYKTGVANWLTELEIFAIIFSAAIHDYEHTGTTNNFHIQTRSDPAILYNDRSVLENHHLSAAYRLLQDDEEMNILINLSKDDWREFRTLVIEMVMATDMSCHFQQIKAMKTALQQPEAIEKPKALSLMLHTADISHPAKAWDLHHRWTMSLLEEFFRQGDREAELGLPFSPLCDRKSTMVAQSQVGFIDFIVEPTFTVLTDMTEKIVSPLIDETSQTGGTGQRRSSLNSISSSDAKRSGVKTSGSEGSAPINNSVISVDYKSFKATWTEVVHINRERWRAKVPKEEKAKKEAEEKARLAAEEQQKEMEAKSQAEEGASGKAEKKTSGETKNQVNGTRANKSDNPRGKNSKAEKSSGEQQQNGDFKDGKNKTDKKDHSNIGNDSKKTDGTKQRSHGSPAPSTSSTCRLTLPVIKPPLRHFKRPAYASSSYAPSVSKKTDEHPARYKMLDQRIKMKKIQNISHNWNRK

On to `COc1ccc2c(NC3CCOC3)ncnc2c1OC` (single isomer, unassigned) [1 Stereoisomer 2], for which the pIC50 in experiment [1] was 5.92; in experiment [2] it was 5.72; in experiment [3] it was 6.22.
The matching figures for `COc1ccc2c(NC3CCOC3)ncnc2c1OC` (single isomer, unassigned) [1 Stereoisomer 1]: 6.55, 6.55 and 7.27.
For `COc1ccc2c(N(C)C3CCOC3C)ncnc2c1OC` (single isomer, unassigned) [22 Stereoisomer 2] the same measures were 7.26, 6.68 and 7.46.
With `COc1ccc2c(N(C)C3(C)CCOC3C)ncnc2c1OC` (single isomer, unassigned) [20 Stereoisomer 2], the values for the negative logarithm of the IC50 (pIC50) in experiment [1], in experiment [2] and in experiment [3] were 7.57, 7.59 and 8.40, respectively.
`COc1ccc2c(N(C)C3(C)CCOC3C)ncnc2c1OC` (single isomer, unassigned) [20 Stereoisomer 4]: the pIC50 is 6.77 in experiment [1], 6.92 in experiment [2] and 7.41 in experiment [3].
Regarding `COc1ccc2c(NC3CCOC3C)ncnc2c1OC` (single isomer, unassigned) [3 Stereoisomer 1], the pIC50 is 5.52 in experiment [1], 5.60 in experiment [2] and 5.92 in experiment [3].
With `COc1ccc2c(NC3CCOC3C)ncnc2c1OC` (single isomer, unassigned) [3 Stereoisomer 2], the pIC50 was 6.51 in experiment [1], 6.31 in experiment [2] and 7.03 in experiment [3].
With `COc1ccc2c(N(C)[C@H]3CCOC3)ncnc2c1OC` (single isomer, unassigned) [4 Stereoisomer 2], the figures for the pIC50 in experiment [1], in experiment [2] and in experiment [3] were 6.85, 5.85 and 7.10, respectively.
The matching figures for `COc1ccc2c(N(CC3CC3)[C@H]3CCOC3)ncnc2c1OC` [Compound 11, (S)-N-(cyclopropylmethyl)-7,8-dimethoxy-N-(tetrahydrofuran-3-yl)quinazolin-4-amine]: 5.80, 6.07 and 6.38.
The matching figures for `COc1ccc2c(NC3(C)CCOC3C)ncnc2c1OC` (single isomer, unassigned) [5 Stereoisomer 1]: 5.96, 6.23 and 6.52.
On to `COc1ccc2c(N(CC3CC3)[C@@H]3CCOC3)ncnc2c1OC` [Compound 15, (R)—N-(cyclopropylmethyl)-7,8-dimethoxy-N-(tetrahydrofuran-3-yl)quinazolin-4-amine], for which the pIC50 is 5.68 in experiment [1], 5.60 in experiment [2] and 6.09 in experiment [3].
For `COc1ccc2c(N(C)C3CCOC3C)ncnc2c1OC` (single isomer, unassigned) [22 Stereoisomer 1], the values for the pIC50 in experiment [1], in experiment [2] and in experiment [3] were 7.10, 6.96 and 7.55, respectively.
With `CCN(c1ncnc2c(OC)c(OC)ccc12)[C@@H]1CCOC1` [Compound 13, (R)—N-ethyl-7,8-dimethoxy-N-(tetrahydrofuran-3-yl)quinazolin-4-amine], the pIC50 in experiment [1] was 5.82; in experiment [2], 5.92; in experiment [3] it was 6.22.
For the compound `COc1ccc2c(N(C)C3CCOC3C)ncnc2c1OC` (single isomer, unassigned) [22 Stereoisomer 3], the pIC50 in experiment [1] is 5.82; in experiment [2] it was 5.96; in experiment [3], 6.37.
For the compound `COc1ccc2c(N(C)C3(C)CCOC3)ncnc2c1OC` (single isomer, unassigned) [23 Stereoisomer 1], the values for the pIC50 in experiment [1], in experiment [2] and in experiment [3] were 6.30, 6.62 and 7.15, respectively.
Regarding `COc1ccc2c(N(C)C3CCOC3)ncnc2c1OC` (stereo not shown) [Compound 4, 7,8-Dimethoxy-N-methyl-N-(tetrahydrofuran-3-yl)quinazolin-4-amine], the pIC50 is 6.85 in experiment [1], 6.44 in experiment [2] and 7.08 in experiment [3].
For `COc1ccc2c(N(Cc3ccccc3)[C@@H]3CCOC3)ncnc2c1OC` [Compound 16, (R)—N-benzyl-7,8-dimethoxy-N-(tetrahydrofuran-3-yl)quinazolin-4-amine] the same measures were 5.80, 5.92 and 6.39.
On to `CCC1(Nc2ncnc3c(OC)c(OC)ccc23)CCOC1` (stereo not shown) [Compound 24, N-(3-Ethyltetrahydrofuran-3-yl)-7,8-dimethoxyquinazolin-4-amine], for which the pIC50 is 6.66 in experiment [1] and 7.20 in experiment [3].
Turning to `COc1ccc2c(N(C)C3(C)CCOC3)ncnc2c1OC` (single isomer, unassigned) [23 Stereoisomer 2], the pIC50 in experiment [1] is 6.77; in experiment [2], 6.80; in experiment [3] it was 7.26.
Consider `COc1ccc2c(NC3CCOC3C)ncnc2c1OC` (single isomer, unassigned) [3 Stereoisomer 3], for which the pIC50 in experiment [1] was 6.41; in experiment [2], 6.05; in experiment [3], 7.00.
With `CCCN(c1ncnc2c(OC)c(OC)ccc12)[C@H]1CCOC1` [Compound 9, (S)-7,8-dimethoxy-N-propyl-N-(tetrahydrofuran-3-yl)quinazolin-4-amine], the negative logarithm of the IC50 (pIC50) in experiment [1] was 6.27; in experiment [2], 6.55; in experiment [3], 6.74.
Take `COc1ccc2c(NC3(C)CCOC3C)ncnc2c1OC` (mixture of isomers) [Compound 5, N-(2,3-dimethyltetrahydrofuran-3-yl)-7,8-dimethoxyquinazolin-4-amine]: the values for the pIC50 in experiment [1], in experiment [2] and in experiment [3] were 6.89, 6.89 and 7.48, respectively.
For the compound `COc1ccc2c(NC3(C)CCOC3C)ncnc2c1OC` (single isomer, unassigned) [5 Stereoisomer 3], the values for the pIC50 in experiment [1], in experiment [2] and in experiment [3] were 7.17, 7.48 and 8.22, respectively.
The matching figures for `COc1ccc2c(N[C@@H]3COC[C@H]3OC)ncnc2c1OC` (relative stereo) [Compound 17, Trans-7,8-dimethoxy-N-(4-methoxytetrahydrofuran-3-yl)quinazolin-4-amine]: 5.89, 5.66 and 6.28.
The matching figures for `COc1ccc2c(N(C)C3CCOC3C)ncnc2c1OC` (single isomer, unassigned) [22 Stereoisomer 4]: 6.11, 5.82 and 5.96.
For the compound `COc1ccc2c(NC3(C)CCOC3)ncnc2c1OC` (single isomer, unassigned) [6 Stereoisomer 1], the pIC50 in experiment [1] was 6.40; in experiment [2], 6.54; in experiment [3], 6.96.
The matching figures for `COc1ccc2c(N(C)C3(C)CCOC3C)ncnc2c1OC` (single isomer, unassigned) [20 Stereoisomer 1]: 7.48, 7.72 and 8.30.
The matching figures for `COc1ccc2c(NC3(C)CCOC3)ncnc2c1OC` (single isomer, unassigned) [6 Stereoisomer 2]: 6.96, 6.85 and 7.43.
With `COc1ccc2c(N[C@@H]3COC[C@@H]3O)ncnc2c1OC` (relative stereo) [Compound 19, cis-4-((7,8-dimethoxyquinazolin-4-yl)amino)tetrahydrofuran-3-ol], the pIC50 in experiment [2] was 5.34; in experiment [3] it was 6.08.
As to `COc1ccc2c(NC3(C)CCOC3C)ncnc2c1OC` (single isomer, unassigned) [5 Stereoisomer 2], the values for the pIC50 in experiment [1], in experiment [2] and in experiment [3] were 6.40, 6.62 and 7.06, respectively.
As for `COc1ccc2c(NC3CCOC3(C)C)ncnc2c1OC` (single isomer, unassigned) [21 Stereoisomer 1], the pIC50 in experiment [1] is 5.55; in experiment [2], 5.82; in experiment [3], 6.11.
For `COc1ccc2c(NC3(C)CCOC3)ncnc2c1OC` (stereo not shown) [Compound 6, 7,8-dimethoxy-N-(3-methyltetrahydrofuran-3-yl)quinazolin-4-amine] the same measures were 6.80, 6.82 and 7.21.
Take `COc1ccc2c(NC3CCOC3C)ncnc2c1OC` (single isomer, unassigned) [3 Stereoisomer 4]: the pIC50 in experiment [1] was 6.57; in experiment [2], 6.24; in experiment [3], 6.92.
For the compound `CCCN(c1ncnc2c(OC)c(OC)ccc12)[C@@H]1CCOC1` [Compound 14, (R)-7,8-dimethoxy-N-propyl-N-(tetrahydrofuran-3-yl)quinazolin-4-amine], the results for the pIC50 in experiment [1], in experiment [2] and in experiment [3] were 6.44, 6.57 and 6.74, respectively.
For `COc1ccc2c(NC3CCOC3(C)C)ncnc2c1OC` (single isomer, unassigned) [21 Stereoisomer 2] the same measures were 5.80, 5.89 and 6.59.
The matching figures for `COc1ccc2c(NC3CCOC3)ncnc2c1OC` (racemic) [Compound 1, 7,8-Dimethoxy-N-(tetrahydrofuran-3-yl)quinazolin-4-amine]: 6.23, 5.92 and 6.64.
The matching figures for `COc1ccc2c(N(C)C3(C)CCOC3C)ncnc2c1OC` (single isomer, unassigned) [20 Stereoisomer 3]: 6.05, 6.36 and 6.72.

What is called pIC50 is −log10 of the IC50, conventionally taken in molar units. High values mean a small IC50, low ones a large IC50.

The record behind these values is US20150175584A1, “Quinazolin-THF-amines as PDE1 inhibitors” (H. LUNDBECK A/S, priority 2013, published 2015).
